Results reported in US20060264498A1, “Anti-obesity agent” (Kyowa Hakko Kogyo Co., Ltd., priority 2003, published 2006).

Test system: KK-Ay/Ta Jc1 mice
Test: Body weight increase per ingested feed amount in obesity type 2 diabetic model mice
Type: in vivo
Settings: KK-Ay/Ta Jc1 male mice, 1% by weight in CE-2 feed; for Body Weight Increase/ Ingested Feed Amount (%): free intake, initial day to 17th day, mean value ± standard error (n=5); for body weight increase per ingested feed amount as compared with group 1 (CE-2 feed only): 17 days, t-test
Text: KK-Ay/Ta Jc1 mice (Clea Japan, Inc.; male; six weeks age)(15 mice) of an obesity type 2 diabetic model were divided into three groups each comprising five and named group 1 to group 3.
The mice of the groups 1 to 3 were made free to take feed and water. A commercially available feed CE-2 (manufactured by Clea Japan, Inc.) was ingested to the mice of group 1. CE-2 to which 1% by weight of trans-4-hydroxy-L-proline (manufactured by Kyowa Hakko Kogyo; hereinafter, abbreviated as the hydroxyproline) was added was ingested to the mice of group 2. CE-2 to which 1% by weight of trans-N-acetyl-4-hydroxy-L-proline (manufactured by Kyowa Hakko Kogyo; hereinafter, abbreviated as the N-acetylhydroxyproline) was added was ingested to the mice of group 3.
Body weight on the initial day of the test and on the 17th day and amount of the ingested feed from the initial day of the test to the 17th day were measured. As an index for the progress of obesity, a body weight increase during the test period for the total ingested feed amount during the test period was calculated for each mouse. The value was shown in terms of mean value±standard error (n=5) and statistic ratio of risk (p value) was determined by a t-test.

Structure (SMILES)	Body Weight Increase/ Ingested Feed Amount (%)	body weight increase per ingested feed amount as compared with group 1 (CE-2 feed only)
CC(=O)N1C[C@H](O)C[C@H]1C(=O)O [N-acetylhydroxyproline, trans-N-acetyl-4-hydroxy-L-proline]	4.2 ± 0.6	significantly low
O=C(O)[C@@H]1C[C@@H](O)CN1 [hydroxyproline, trans-4-hydroxy-L-proline]	5.8 ± 0.4	tended to show low value
